Results reported in ChEMBL document CHEMBL6071181, “Discovery of ZLC491 as a Potent, Selective, and Orally Bioavailable CDK12/13 PROTAC Degrader” (J Med Chem, 2024).
Blank lines part the entries; values can stand above or below the molecule they belong to. Calls of active or inactive are those of the source. The calls are words filed in the database; no cut-off is given here.

Experiments:
[1] = biological target: T1, Protein cereblon/Cyclin-dependent kinase 12 (Homo sapiens) (UniProt Q9NYV4+Q96SW2); experiment: PROTAC activity at CRBN/CDK12 in human MDA-MB-231 cells assessed as induction of CDK12 degradation at 1 uM incubated for 10 hrs by immunoblotting analysis; type: cell-based
Target sequence in this assay (Q96SW2 whole entry, looked up): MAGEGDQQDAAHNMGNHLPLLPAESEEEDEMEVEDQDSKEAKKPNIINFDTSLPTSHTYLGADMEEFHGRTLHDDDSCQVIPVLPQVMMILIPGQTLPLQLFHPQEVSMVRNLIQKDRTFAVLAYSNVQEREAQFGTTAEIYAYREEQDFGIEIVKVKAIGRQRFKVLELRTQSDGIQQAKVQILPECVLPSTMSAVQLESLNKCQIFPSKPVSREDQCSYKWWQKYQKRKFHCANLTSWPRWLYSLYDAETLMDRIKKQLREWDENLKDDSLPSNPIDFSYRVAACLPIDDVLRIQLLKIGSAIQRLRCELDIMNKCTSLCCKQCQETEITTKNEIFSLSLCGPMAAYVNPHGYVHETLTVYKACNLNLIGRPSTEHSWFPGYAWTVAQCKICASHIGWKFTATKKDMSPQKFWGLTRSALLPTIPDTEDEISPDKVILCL
Target sequence in this assay (Q9NYV4 whole entry, looked up): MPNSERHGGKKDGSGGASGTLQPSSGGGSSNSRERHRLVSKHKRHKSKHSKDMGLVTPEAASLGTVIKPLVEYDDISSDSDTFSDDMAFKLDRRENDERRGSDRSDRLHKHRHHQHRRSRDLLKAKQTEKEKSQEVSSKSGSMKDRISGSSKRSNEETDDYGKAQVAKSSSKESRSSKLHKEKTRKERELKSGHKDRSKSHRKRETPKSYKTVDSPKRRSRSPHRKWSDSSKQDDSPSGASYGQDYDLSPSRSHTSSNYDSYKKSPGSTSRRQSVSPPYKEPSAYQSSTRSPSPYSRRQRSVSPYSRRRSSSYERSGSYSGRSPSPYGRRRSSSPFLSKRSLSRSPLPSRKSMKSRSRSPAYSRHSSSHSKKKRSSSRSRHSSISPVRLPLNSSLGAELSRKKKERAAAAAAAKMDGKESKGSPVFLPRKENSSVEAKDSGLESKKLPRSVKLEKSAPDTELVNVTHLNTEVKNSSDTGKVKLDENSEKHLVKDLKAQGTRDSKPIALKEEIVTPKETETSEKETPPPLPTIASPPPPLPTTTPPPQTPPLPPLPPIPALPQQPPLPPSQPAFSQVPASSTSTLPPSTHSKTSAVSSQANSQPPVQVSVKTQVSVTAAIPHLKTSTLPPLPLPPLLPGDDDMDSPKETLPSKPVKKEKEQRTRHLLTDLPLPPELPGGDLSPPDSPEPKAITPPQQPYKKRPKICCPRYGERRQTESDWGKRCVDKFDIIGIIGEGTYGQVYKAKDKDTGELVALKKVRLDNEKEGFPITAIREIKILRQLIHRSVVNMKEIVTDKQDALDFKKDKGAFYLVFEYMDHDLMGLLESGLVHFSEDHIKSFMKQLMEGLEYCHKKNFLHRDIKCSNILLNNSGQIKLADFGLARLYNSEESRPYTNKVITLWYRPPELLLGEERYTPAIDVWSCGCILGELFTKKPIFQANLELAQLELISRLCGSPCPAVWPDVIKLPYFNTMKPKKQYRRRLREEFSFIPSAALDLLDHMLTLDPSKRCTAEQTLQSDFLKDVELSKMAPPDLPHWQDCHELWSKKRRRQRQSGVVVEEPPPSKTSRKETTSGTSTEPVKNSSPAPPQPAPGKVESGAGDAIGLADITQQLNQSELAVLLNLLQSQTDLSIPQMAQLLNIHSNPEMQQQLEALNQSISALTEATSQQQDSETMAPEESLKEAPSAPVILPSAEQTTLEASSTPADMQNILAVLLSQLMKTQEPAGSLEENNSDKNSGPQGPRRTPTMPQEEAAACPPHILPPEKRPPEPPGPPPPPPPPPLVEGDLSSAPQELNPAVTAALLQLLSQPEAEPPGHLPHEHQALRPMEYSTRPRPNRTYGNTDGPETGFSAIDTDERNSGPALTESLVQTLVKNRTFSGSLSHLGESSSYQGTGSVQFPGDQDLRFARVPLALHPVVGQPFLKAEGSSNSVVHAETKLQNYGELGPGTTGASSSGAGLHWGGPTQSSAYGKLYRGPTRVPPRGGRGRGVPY

[2] = biological target: T2, Protein cereblon/Cyclin-dependent kinase 13 (Homo sapiens) (UniProt Q14004+Q96SW2); experiment: PROTAC activity at CRBN/CDK13 in human MDA-MB-231 cells assessed as induction of CDK13 degradation at 1 uM incubated for 10 hrs by immunoblotting analysis; type: cell-based
Target sequence in this assay (Q14004 whole entry, looked up): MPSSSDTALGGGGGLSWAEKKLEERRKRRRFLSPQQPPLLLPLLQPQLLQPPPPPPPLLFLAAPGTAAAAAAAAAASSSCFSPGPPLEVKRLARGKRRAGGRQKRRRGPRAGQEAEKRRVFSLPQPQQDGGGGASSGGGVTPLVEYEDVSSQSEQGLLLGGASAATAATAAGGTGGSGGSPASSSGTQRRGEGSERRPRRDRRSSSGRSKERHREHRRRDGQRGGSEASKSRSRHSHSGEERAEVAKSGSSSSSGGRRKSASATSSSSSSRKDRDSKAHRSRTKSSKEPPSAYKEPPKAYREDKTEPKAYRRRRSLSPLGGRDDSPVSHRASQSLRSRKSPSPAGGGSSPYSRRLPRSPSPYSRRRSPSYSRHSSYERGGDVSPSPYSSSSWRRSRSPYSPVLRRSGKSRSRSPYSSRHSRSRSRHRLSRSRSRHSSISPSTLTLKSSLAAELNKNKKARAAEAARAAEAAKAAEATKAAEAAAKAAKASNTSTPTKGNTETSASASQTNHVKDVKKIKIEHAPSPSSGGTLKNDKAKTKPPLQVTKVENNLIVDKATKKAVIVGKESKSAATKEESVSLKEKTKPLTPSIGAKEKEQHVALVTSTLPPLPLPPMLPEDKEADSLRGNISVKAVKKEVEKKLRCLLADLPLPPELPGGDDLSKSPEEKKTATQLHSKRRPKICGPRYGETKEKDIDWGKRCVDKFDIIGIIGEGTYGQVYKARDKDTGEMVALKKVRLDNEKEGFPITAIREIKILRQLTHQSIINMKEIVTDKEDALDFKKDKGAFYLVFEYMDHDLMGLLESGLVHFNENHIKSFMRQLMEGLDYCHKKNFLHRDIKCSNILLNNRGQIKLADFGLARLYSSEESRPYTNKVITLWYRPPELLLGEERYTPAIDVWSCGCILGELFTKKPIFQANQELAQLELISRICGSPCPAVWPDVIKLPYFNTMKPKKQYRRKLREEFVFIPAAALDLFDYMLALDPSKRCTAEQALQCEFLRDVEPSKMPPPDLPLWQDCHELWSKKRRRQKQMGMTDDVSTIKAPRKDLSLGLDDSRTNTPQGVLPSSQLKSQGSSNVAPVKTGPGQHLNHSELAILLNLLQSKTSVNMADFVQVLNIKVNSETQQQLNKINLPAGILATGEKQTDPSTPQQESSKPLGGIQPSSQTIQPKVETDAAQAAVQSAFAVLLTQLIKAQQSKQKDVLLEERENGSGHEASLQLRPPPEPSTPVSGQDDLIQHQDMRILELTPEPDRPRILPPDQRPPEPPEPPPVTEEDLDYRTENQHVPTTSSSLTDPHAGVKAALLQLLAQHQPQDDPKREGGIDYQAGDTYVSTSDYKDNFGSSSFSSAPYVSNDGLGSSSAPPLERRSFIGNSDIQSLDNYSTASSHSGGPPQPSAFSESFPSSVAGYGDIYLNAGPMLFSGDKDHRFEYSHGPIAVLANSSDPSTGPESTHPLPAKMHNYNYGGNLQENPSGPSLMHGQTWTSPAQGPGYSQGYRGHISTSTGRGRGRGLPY
Target sequence in this assay (Q96SW2 whole entry, looked up): as the sequence (Q96SW2 whole entry, looked up) above

[3] = system: MDA-MB-231; experiment: Antiproliferative activity against human MDA-MB-231 cells assessed as inhibition of cell growth at 0.0001 to 100 uM incubated for 5 days by CCK8 assay; type: functional, cell-based; conditions: dose 0.0001-100 µM, time 5.0 day
[4] = system: HCC38; experiment: Antiproliferative activity against human HCC38 cells assessed as inhibition of cell growth at 0.0001 to 100 uM incubated for 5 days by CCK8 assay; type: functional, cell-based; conditions: dose 0.0001-100 µM, time 5.0 day
[5] = system: MDA-MB-436; experiment: Antiproliferative activity against human MDA-MB-436 cells assessed as inhibition of cell growth at 0.0001 to 100 uM incubated for 5 days by CCK8 assay; type: functional, cell-based; conditions: dose 0.0001-100 µM, time 5.0 day
[6] = system: MCF-10A; experiment: Antiproliferative activity against human MCF-10A cells assessed as inhibition of cell growth at 0.0001 to 100 uM incubated for 5 days by CCK8 assay; type: toxicity, cell-based; conditions: 120 h, dose 0.0001-100 µM, time 5 day
[7] = system: HEK293; experiment: Antiproliferative activity against HEK293 cells assessed as inhibition of cell growth at 0.0001 to 100 uM incubated for 5 days by CCK8 assay; type: toxicity, cell-based; conditions: human, hek293, 120 h, dose 0.0001-100 µM, time 5 day
[8] = system: MRC5; experiment: Antiproliferative activity against human MRC5 cells assessed as inhibition of cell growth at 0.0001 to 100 uM incubated for 5 days by CCK8 assay; type: toxicity, cell-based; conditions: mrc5, 120 h, dose 0.0001-100 µM, time 5 day
[9] = Half-life in Sprague-Dawley rat at 2.5 mg/kg, iv measured after 24 hrs by LC/MS/MS analysis; type: ADME, organism-based; conditions: in vivo
[10] = Cmax in Sprague-Dawley rat at 2.5 mg/kg, iv measured after 24 hrs by LC/MS/MS analysis; type: ADME, organism-based; conditions: in vivo
[11] = AUC (0 to t) in Sprague-Dawley rat at 2.5 mg/kg, iv measured after 24 hrs by LC/MS/MS analysis; type: ADME, organism-based; conditions: in vivo
[12] = Half-life in Sprague-Dawley rat at 10 mg/kg, po measured after 24 hrs by LC/MS/MS analysis; type: ADME, organism-based; conditions: in vivo
[13] = Cmax in Sprague-Dawley rat at 10 mg/kg, po measured after 24 hrs by LC/MS/MS analysis; type: ADME, organism-based; conditions: in vivo
[14] = AUC (0 to t) in Sprague-Dawley rat at 10 mg/kg, po measured after 24 hrs by LC/MS/MS analysis; type: ADME, organism-based; conditions: in vivo
[15] = biological target: T1, Protein cereblon/Cyclin-dependent kinase 12 (Homo sapiens); experiment: PROTAC activity at CRBN/CDK12 in human MDA-MB-231 cells assessed as induction of CDK12 degradation at 0.3 uM incubated for 15 hrs by immunoblotting analysis relative to control; type: cell-based
Target sequence in this assay (Q96SW2 whole entry, looked up, chain 1 of 2): as the sequence (Q96SW2 whole entry, looked up) above
Target sequence in this assay (Q9NYV4 whole entry, looked up, chain 2 of 2): as the sequence (Q9NYV4 whole entry, looked up) above

[16] = biological target: T2, Protein cereblon/Cyclin-dependent kinase 13 (Homo sapiens); experiment: PROTAC activity at CRBN/CDK13 in human MDA-MB-231 cells assessed as induction of CDK13 degradation at 0.3 uM incubated for 15 hrs by immunoblotting analysis relative to control; type: cell-based
Target sequence in this assay (Q96SW2 whole entry, looked up, chain 1 of 2): as the sequence (Q96SW2 whole entry, looked up) above
Target sequence in this assay (Q14004 whole entry, looked up, chain 2 of 2): as the sequence (Q14004 whole entry, looked up) above

Activity [1]: inactive
Activity [2]: inactive
Molecule: CN1C(=O)CCC(N2C(=O)c3cc(F)c(N4CCC(N5CCN(c6ccc(N(C(=O)NCc7ccccc7)[C@H]7CC[C@H](Nc8ccc(C#N)cn8)CC7)cc6)CC5)CC4)cc3C2=O)C1=O (stereo partly specified)
Activity [3]: inactive
Activity [4]: inactive
Activity [5]: inactive
Activity [6]: Non-Toxic
Activity [7]: Non-Toxic
Activity [8]: Non-Toxic

half-life [9]: 2.38 h
Cmax [10]: 2590 ng/mL
AUC(0-t) at 24 h [11]: 4720 ng·h/mL
half-life [12]: 3.04 h
Cmax [13]: 308 ng/mL
AUC(0-t) at 24 h [14]: 3110 ng·h/mL
Molecule: N#Cc1ccc(N[C@H]2CC[C@H](N(C(=O)NCc3ccccc3)c3ccc(N4CCN(C5CCN(c6ccc7c(c6)C(=O)N(C6CCC(=O)NC6=O)C7=O)CC5)CC4)cc3)CC2)nc1 (stereo partly specified)

Activity [15]: 35%
Activity [16]: 38%
Molecule: 3-benzyl-1-((1r,4r)-4-((5-cyanopyridin-2-yl)amino)cyclohexyl)-1-(4-(4-(1-(2-(2,6-dioxopiperidin-3-yl)-1,3-dioxoisoindolin-5-yl)azetidine-3-carbonyl)piperazin-1-yl)phenyl)urea
